Values of other authors as cited in patent US20010006673A1, “LUTEIN- CONTAINING SUPPLEMENT AND PROCESS FOR ENHANCING IMMUNE RESPONSE IN ANIMALS” (priority 1998, published 2001).

Columns and labels:
[1] = system: mouse splenocytes; conditions: cited from earlier work
[2] = system: Splenocytes; conditions: splenocytes from mice injected peritoneally; cited from earlier work
[3] = system: chemical-induced carcinogenesis; conditions: mice; cited from earlier work
[4] = system: lymphocyte; conditions: rats; cited from earlier work
[5] = system: tumor necrosis factor (TNF); conditions: hamsters; cited from earlier work
[6] = system: human neuroblastoma cell; conditions: cited from earlier work

Row | Structure (SMILES) | Ex vivo antibody response to T-dependent antigens [1] | Antibody response to T-dependent antigens [2] | further results
1 | CC1=C(/C=C/C(C)=C/C=C/C(C)=C/C=C/C=C(C)/C=C/C=C(C)/C=C/C2=C(C)C(=O)[C@@H](O)CC2(C)C)C(C)(C)C[C@H](O)C1=O [astaxanthin] | increase | enhanced | –
2 | CC1=C(/C=C/C(C)=C/C=C/C(C)=C/C=C/C=C(C)/C=C/C=C(C)/C=C/C2=C(C)C(=O)CCC2(C)C)C(C)(C)CCC1=O [canthaxanthin] | – | – | Chemical-induced carcinogenesis [3]: prevent; Lymphocyte proliferation [4]: increase; Production of tumor necrosis factor (TNF) by macrophages [5]: enhance
3 | CC1=CCCC(C)(C)C1/C=C/C(C)=C/C=C/C(C)=C/C=C/C=C(C)/C=C/C=C(C)/C=C/C1=C(C)CCCC1(C)C (stereo not drawn) [α-carotene] | – | – | Human neuroblastoma cell proliferation [6]: inhibit
4 | CC1=C(/C=C/C(C)=C/C=C/C(C)=C/C=C/C=C(C)/C=C/C=C(C)/C=C/C2=C(C)CCCC2(C)C)C(C)(C)CCC1 [β-carotene] | increase | enhanced | –
